The record followed here is PubChem BioAssay AID720695 (Broad Institute, 2013).

Active and inactive are the calls of the source.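 Rule for the calls: active = compounds lowering Shn3 signal with a fitted half-maximal concentration at most twice the top tested dose; inconclusive = flat curve with 30 to 70% loss, or poor fit; inactive = the rest.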

One may read the AC50 as the concentration at which the activity in the assay is half-maximal.

In one assay the target is Schnurri-3 (HIVEP3) mRNA. As to the kind of experiment: endogenous Schnurri-3 transcript knock-down – Clone20 cells, qPCR, dry powder, orthogonal assay for Schnurri-3 inhibitor project, dose response (AID 720695). The conditions noted are these: Shn3 mRNA qPCR, overnight. A general note: In qPCR the cycle at which signal appears reflects the starting amount.
Take `CN(C(=O)COc1ccccc1C(=O)NCCOc1ccccc1)c1ccccc1`: the AC50 was 26.6 µM.

Turning to `CC(C)[C@H](NC(=O)OC(C)(C)C)c1nnc(S(=O)(=O)Cc2c(F)cccc2Cl)o1`, the concentration at half-maximal activity (AC50) was 22.3 µM.

For `O=C(c1nnsc1S(=O)c1ccc(Cl)cc1)N1CCOCC1` (stereo not drawn), the AC50 is 13.7 µM.

In the case of `CCOC(=O)c1ccc(NC(=O)Cn2ncc(Cl)c(Cl)c2=O)cc1`, the AC50 is 11.6 µM.

With `CCCc1nnc(NC(=O)c2nc(S(=O)(=O)Cc3ccc(C)cc3)ncc2Cl)s1`, the half-maximal activity concentration (AC50) is 28 µM.

As for `COc1ccc(NC(=O)c2nc(S(=O)(=O)Cc3cccc(C)c3)ncc2Cl)c(OC)c1`, the AC50 was 8.91 µM.

On to `COc1cc(CN2CCc3ccccc3C2)ccc1O`, for which the concentration at half-maximal activity (AC50) is 6.67 µM.

The same assay, now with this note: overnight, at 35 µM (top of the series).
`Fc1ccc(-n2nnnc2-c2cnc(-c3cccs3)nc2C(F)(F)F)cc1`: the “Shn3 expression, relative signal” value is “inactive”.

With `COc1ccc2c(c1)c(CC(=O)Nc1cc(C)ccc1C)c(C)n2C(=O)c1ccc(Cl)cc1`, the “Shn3 expression, relative signal” value is “inactive”.

With `CCCOc1ccccc1C1CC(=O)Nc2cc3c(cc21)OCO3` (stereo not drawn), the “Shn3 expression, relative signal” value was “inactive”.

`Cc1ccc2cc(CN(CC3CCCO3)C(=O)NC3CCCCC3)c(=O)[nH]c2c1C` (stereo not drawn): the “Shn3 expression, relative signal” value is “inactive”.

With `CN(C)S(=O)(=O)c1cccc(NC(=O)c2cccc(S(=O)(=O)N3CCc4ccccc43)c2)c1`, the “Shn3 expression, relative signal” value was “inactive”.

Regarding `CC(=O)Nc1cccc(NC(=O)CSc2ncc(-c3ccc(Cl)cc3)n2Cc2ccco2)c1`, the “Shn3 expression, relative signal” value was “inactive”.

`CN(CC(=O)Nc1cccc(S(=O)(=O)N2CCOCC2)c1)CC(=O)Nc1ccc(Cl)c(C(F)(F)F)c1`: the “Shn3 expression, relative signal” value is “inactive”.

Take `Cc1cc(N2CCCC2=O)cc(C)c1S(=O)(=O)NCCOc1ccc(C(C)(C)C)cc1`: the “Shn3 expression, relative signal” value is “inactive”.

With `CC(C)(C)NC(=O)CSc1nc2ccc(NC(=O)CSc3nnnn3Cc3ccccc3)cc2s1`, the “Shn3 expression, relative signal” value is “inactive”.

`COc1ccc(Nc2nc(N3CCCCC3)c3ccccc3n2)cc1`: the “Shn3 expression, relative signal” value was “inactive”.

In the case of `CC(=O)N1CCN(C(=O)CCc2cc(C(C)(C)C)c(O)c(C(C)(C)C)c2)CC1`, the “Shn3 expression, relative signal” value was “inactive”.

`COc1ccc(NS(=O)(=O)c2ccc(C(=O)N3CCCCCC3)cc2)cc1`: the “Shn3 expression, relative signal” value is “inactive”.

For the compound `O=C1CSc2ccc(C(=O)Nc3cccc(S(=O)(=O)Nc4ccc(Br)cc4)c3)cc2N1`, the “Shn3 expression, relative signal” value is “inactive”.

As to `CCOC(=O)C1CCN(C(=O)c2ccc(OCC(=O)Nc3cccc(C(F)(F)F)c3)c(OC)c2)CC1`, the “Shn3 expression, relative signal” value is “inactive”.

Consider `CCOC(=O)C1(Cc2ccc(Cl)cc2)CCN(C(C)Cc2ccc(O)c(OC)c2)CC1` (stereo not drawn), for which the “Shn3 expression, relative signal” value is “inactive”.

Turning to `Nc1nonc1C(=O)NCCNCc1cc(Br)ccc1OCc1ccc(F)cc1`, the “Shn3 expression, relative signal” value was “inactive”.

In the case of `COc1ccccc1N1CCN(c2ncc(C(=O)N3CCN(c4cccc(Cl)c4)CC3)c3ccccc23)CC1`, the “Shn3 expression, relative signal” value was “inactive”.

In the case of `Cc1cc2c(cc(C(=O)N3CCC(C(=O)NC4CCCC4)CC3)n2Cc2c(F)cccc2Cl)o1`, the “Shn3 expression, relative signal” value was “inactive”.

`CN(C)c1nc(-c2ccccn2)nnc1-c1ccccc1`: the “Shn3 expression, relative signal” value was “inactive”.

With `COc1cc2ncnc(N[C@H](C)c3ccccc3)c2cc1OC`, the “Shn3 expression, relative signal” value is “inactive”.

Turning to `O=c1c2ccccc2nc2n1C(CSCc1ccc(Cl)cc1Cl)CS2` (stereo not drawn), the “Shn3 expression, relative signal” value is “inactive”.
